# Data as given in patent US7008636B2, “2,3,5-substituted biphenyls useful in the treatment of insulin resistance and hyperglycemia” (Wyeth, priority 1998, dated 2006).
# Target: T1, recombinant, human protein tyrosine phosphatase (PTP) 1B (hPTP1B) (Homo sapiens, UniProt P18031)
# T1 construct: made in house
# T1 sequence (P18031 1-435): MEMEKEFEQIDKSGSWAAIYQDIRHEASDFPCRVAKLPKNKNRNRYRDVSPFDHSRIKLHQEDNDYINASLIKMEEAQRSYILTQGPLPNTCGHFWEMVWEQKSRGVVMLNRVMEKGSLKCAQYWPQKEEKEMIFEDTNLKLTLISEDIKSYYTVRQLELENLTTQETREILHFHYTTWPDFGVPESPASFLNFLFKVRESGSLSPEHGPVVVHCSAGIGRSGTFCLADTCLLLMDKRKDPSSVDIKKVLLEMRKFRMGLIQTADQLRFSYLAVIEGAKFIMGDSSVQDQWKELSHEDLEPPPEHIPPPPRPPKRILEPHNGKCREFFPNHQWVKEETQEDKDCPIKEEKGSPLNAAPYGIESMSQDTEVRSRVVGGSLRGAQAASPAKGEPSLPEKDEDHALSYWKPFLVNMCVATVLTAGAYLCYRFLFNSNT
# Assay: Inhibition of tri-phosphorylated insulin receptor dodecaphosphopeptide dephosphorylation by hPTP1B
# Format: biochemical
# Conditions: 50 μM IR triphosphopeptide substrate, 5 min preincubation and 5 min reaction at 37° C., malachite green-ammonium molybdate phosphate detection
row,IC50 [nM],Molecule
1,136,"CCCCCCCOc1ccc(CNC(=O)c2cc(-c3cccc(Cl)c3)c(OCC(=O)O)c(-c3cccc(Cl)c3)c2)cc1 [Example 162, [3,3″-Dichloro-5′-(4-heptyloxy-benzylcarbamoyl)-[1,1′;3′,1″]terphenyl-2′-yloxy]acetic acid]"
2,191,"O=C(O)CCCCOc1c(-c2cccc(Cl)c2)cc(C(=O)NCCCCCCCCn2ccc3ccccc32)cc1-c1cccc(Cl)c1 [Example 164, 5-[3,3″-Dichloro-5′-(8-indol-1-yl-octylcarbamoyl)-[1,1′;3′,1″]terphenyl-2′-yloxy]-pentanoic acid]"
3,77,"O=C(O)c1ccc(OCCOc2c(-c3cccc(Cl)c3)cc(C(=O)NCCCCCCCCn3ccc4ccccc43)cc2-c2cccc(Cl)c2)cc1 [Example 165, 4-{2-[3,3″-Dichloro-5′-(8-indol-1-yl-octylcarbamoyl)-[1,1′:3′,1″]terphenyl-2′-yloxy]-ethoxy}benzoic acid]"
4,231,"O=C(O)COc1c(-c2cccc(Cl)c2)cc(C(=O)NCCCCCCO)cc1-c1cccc(Cl)c1 [Example 167, [3,3″-Dichloro-5′-(6-hydroxy-hexylcarbamoyl)-[1,1′:3′,1″]terphenyl-2′-yloxy]acetic acid]"
5,77,"O=C(O)COCCOc1c(-c2cccc(Cl)c2)cc(C(=O)NCCCCCCCCn2ccc3ccccc32)cc1-c1cccc(Cl)c1 [Example 168, {2-[3,3″-Dichloro-5′-(8-indol-1-yl-octylcarbamoyl)-[1,1′:3′,1″]terphenyl-2′-yloxy]-ethoxy}acetic acid]"
6,18,"CCCCCCCCCCCCCc1cc(-c2ccccc2)c(OCC(=O)O)c(-c2ccccc2)c1 [Example 171, (5′-Tridecyl-[1,1′;3′,1″]terphenyl-2′-yloxy)acetic acid]"
7,154,"CCCCCCCCCCOc1cc(-c2ccccc2)c(OCC(=O)O)c(-c2ccccc2)c1 [Example 172, (5′-Decyloxy-[1,1′;3′,1″]terphenyl-2′-yloxy)acetic acid]"
8,121,"CCCCCCCCCCCCNC(=O)c1cc(Br)c(OCC(=O)O)c(-c2cccc(C(F)(F)F)c2)c1 [Example 176, (3-Bromo-5-dodecylcarbamoyl-3′-trifluoromethyl-biphenyl-2-yloxy)-acetic acid]"
9,104,O=C(O)COc1c(-c2cccc(C(F)(F)F)c2)cc(C(=O)NCCCCCCCCc2ccccc2)cc1-c1cccc(C(F)(F)F)c1 [Example 177]
10,25,"CCCCCCCCCCCCNC(=O)c1cc(Br)c(OS(=O)(=O)c2ccc(C(=O)O)c(O)c2)c(-c2cccc(C(F)(F)F)c2)c1 [Example 179, 4-(3-Bromo-5-dodecylcarbamoyl-3′-trifluoromethyl-biphenyl-2-yloxysulfonyl)-2-hydroxy-benzoic acid]"
11,107,O=C(O)CCCCOc1c(-c2cccc(C(F)(F)F)c2)cc(C(=O)NCCCCCCCCc2ccccc2)cc1-c1cccc(C(F)(F)F)c1 [Example 192]
12,640,"O=C(NCCCCCCCCc1ccccc1)c1cc(Br)c(O)c(-c2cccc(C(F)(F)F)c2)c1 [Example 194, 5-Bromo-6-hydroxy-3′-trifluoromethyl-biphenyl-3-carboxylic acid (8-phenyl-octyl)-amide]"
13,73,"O=C(NCCCCCCCCc1ccccc1)c1cc(Br)c(OS(=O)(=O)c2ccc(C(=O)O)c(O)c2)c(-c2cccc(C(F)(F)F)c2)c1 [Example 195, 4-[3-Bromo-5-(8-phenyl-octylcarbamoyl)-3′-trifluoromethyl-biphenyl-2-yloxysulfonyl]-2-hydroxy-benzoic acid]"
14,150,"O=C(O)CCCCCCOc1c(-c2cccc(C(F)(F)F)c2)cc(C(=O)NCCCCCCCCc2ccccc2)cc1-c1cccc(C(F)(F)F)c1 [Example 196, 7-[5′-(8-Phenyl-octylcarbamoyl)-3,3″-bistrifluoromethyl-[1,1′;3′,1″]terphenyl-2′-yloxy]-heptanoic acid]"
15,99,O=C(NCCCCCCCCc1ccccc1)c1cc(-c2cccc(C(F)(F)F)c2)c(OCCNc2c(O)c(=O)c2=O)c(-c2cccc(C(F)(F)F)c2)c1 [Example 197]
16,102,"COc1cc(COc2c(-c3cccc(C(F)(F)F)c3)cc(C(=O)NCCCCCCCCc3ccccc3)cc2-c2cccc(C(F)(F)F)c2)ccc1C(=O)O [Example 199, 2-Methoxy-4-[5′-(8-phenyl-octylcarbamoyl)-3,3″-bis-trifluoromethyl-[1,1′:3′1″]terphenyl-2′yloxymethyl]-benzoic acid]"
17,50,"O=C(NCCCCCCCCc1ccccc1)c1cc(-c2cccc(C(F)(F)F)c2)c(OS(=O)(=O)c2ccc(C(=O)O)c(O)c2)c(-c2cccc(C(F)(F)F)c2)c1 [Example 203, 2-Hydroxy-4-[5′-(8-phenyl-octylcarbamoyl)-3,3″-bis-trifluoromethyl-[1,1′:3′1″]terphenyl-2′-yloxysulfonyl]-benzoic acid]"
18,73,"COc1cc(COc2c(Br)cc(C(=O)NCCCCCCCCc3ccccc3)cc2-c2cccc(C(F)(F)F)c2)ccc1C(=O)O [Example 204, 4-[3-Bromo-5-(8-phenyl-octylcarbamoyl)-3′-trifluoromethyl-biphenyl-2-yloxymethyl]-2-methoxy-benzoic acid]"
19,286,"O=C(NCCCCCCCCc1ccccc1)c1cc(-c2cccc(C(F)(F)F)c2)c(OCc2nnn[nH]2)c(-c2cccc(C(F)(F)F)c2)c1 [Example 206, 2′-(1H-Tetrazol-5-ylmethoxy)-3,3″-bis-trifluoromethyl-[1,1′:3′1″]terphenyl-5′-carboxylic acid (8-phenyl-octyl)-amide]"
20,83,"O=C(NCCCCCCCCc1ccccc1)c1cc(Br)c(OCc2ccc(C(=O)O)c(O)c2)c(-c2cccc(C(F)(F)F)c2)c1 [Example 208, 4-[3-Bromo-5-(8-phenyl-octylcarbamoyl)-3′-trifluoromethyl-biphenyl-2-yloxymethyl]-2-hydroxy-benzoic acid]"
21,530,"O=C(NCCCCCCCCc1ccccc1)c1ccc(OS(=O)(=O)c2ccc(C(=O)O)c(O)c2)c(Br)c1 [Example 210, 4-[2-Bromo-4-(8-phenyl-octylcarbamoyl)-phenoxysulfonyl]-2-hydroxy-benzoic acid]"
22,60,"O=C(NCCCCCCCCc1ccccc1)c1cc(-c2cccc(C(F)(F)F)c2)c(OCCOc2ccc(C(=O)O)c(O)c2)c(-c2cccc(C(F)(F)F)c2)c1 [Example 211, 2-Hydroxy-4-{2-[5′-(8-phenyl-octylcarbamoyl)-3,3″-bis-trifluoromethyl-[1,1′:3′,1″]terphenyl-2′-yloxy]-ethoxy}-benzoic acid]"
23,272,"CN(CCCCCCCCc1ccccc1)C(=O)c1cc(Br)c(OCC(=O)O)c(-c2cccc(C(F)(F)F)c2)c1 [Example 212, {3-Bromo-5-[methyl-(8-phenyl-octyl)-carbamoyl]-3′-trifluoromethyl-biphenyl-2-yloxy]-acetic acid]"
24,198,"CN(CCCCCCCCc1ccccc1)C(=O)c1cc(-c2ccc(F)c(Cl)c2)c(OCC(=O)O)c(-c2ccc(F)c(Cl)c2)c1 [Example 213, {3,3″-Dichloro-4,4″difluoro-5′-[methyl-(8-phenyl-octyl)-carbamoyl]-[1,1′;3′1″]terphenyl-2′yloxy}-acetic acid]"
25,8700,Ammonium molybdate tetrahydrate [reference compound]
26,124,"[[4,4′-Dimethoxy-5′-[4-[[(7-phenylheptyl)amino]carbonyl]phenyl][1,1′:3′,1-terphenyl]-2′-yl]oxy]acetic acid [Example 131]"
